Assay results taken from publication PMC12751025, “α‑Aminoboronic Acid Moieties in Boro Dipeptides Modulate Proteasome Subunit Selectivity and Provide Access to Compounds with Potent Anticancer and Anti-Inflammatory Activity” (Journal of Medicinal Chemistry, 2025).
Several values for one entry are separate records, joined by “and”; a condition that tells them apart may be missing. Equal entries are not always repeated. Where two headings read alike, the source gives them in different places.

Assays:
[1] = molecular target: β5i subunit of human iCP (Homo sapiens, UniProt P20618+P28062); assay: IC50 determination with fluorogenic substrate Ac-ANW-AMC; conditions: for IC50: IC50 β5i
Description: (§1) The measurements of the residual activity of control compounds were carried out at final compound concentrations of 1 μM in the assay buffer (50 mM Tris-HCl, 0.5 mM ethylenediaminetetraacetic acid (EDTA), pH 7.4). Stock solutions of the compounds were prepared in DMSO. To the 35 μL of solution of the compound in the buffer, 35 μL of 0.4 nM human iCP (South Bay Bio, San Jose, CA, USA) or human cCP (Boston Biochem, Inc., Cambridge, MA, USA) was added. For assays evaluating the activity of β2c and β2i, the buffer was modified by adding the proteasomal activator PA28β (Boston Biochem, Inc., Cambridge, MA, USA) at a final concentration of 6 nM. […] The substrates used were acetyl-Nle-Pro-Nle-Asp-7-amino-4-methylcoumarin (Ac-nLPnLD-AMC, Bachem, Bubendorf, Switzerland) for β1c, acetyl-Pro-Ala-Leu-7-amino-4-methylcoumarin (Ac-PAL-AMC, Boston Biochem, Inc., Cambridge, MA, USA) for β1i, acetyl-Arg-Leu-Arg-7-amino-4-methylcoumarin (Ac-RLR-AMC, Bachem, Bubendorf, Switzerland) for β2c and β2i, acetyl-Trp-Leu-Ala-7-amino-4-methylcoumarin (Ac-WLA-AMC, Bachem, Bubendorf, Switzerland) for β5c, and acetyl-Ala-Asn-Trp-7-amino-4-methylcoumarin (Ac-ANW-AMC, Bachem, Bubendorf, Switzerland) for β5i. Progress of the reaction was measured using a BioTek Synergy HT microplate reader, monitoring fluorescence at 460 nm (excitation at 360 nm) for 60 min at 37 °C. The initial linear ranges were used to calculate the reaction velocity and determine the residual activity.
(§2) The final assay mixtures contained 0.4 nM human iCP or cCP in assay buffer (50 mM Tris-HCl, 0.5 mM EDTA, pH 7.4, addition of PA28β for β2c and β2i subunits). […] After incubation at 37 °C for 30 min, the reaction was initiated by the addition of the substrate Ac-nLPnLD-AMC for β1c, Ac-PAL-AMC for β1i, Ac-RLR-AMC for β2c and β2i, Ac-WLA-AMC for β5c, and Ac-ANW-AMC for β5i. Fluorescence was monitored at 460 nm (excitation at 360 nm) for 60 min at 37 °C. The reaction progress was recorded and the initial linear phases were used to determine the velocity. The IC50 values were calculated using GraphPad Prism software (GraphPad Software, San Diego, CA, USA), and the results represent the mean values of at least three independent determinations.

[2] = molecular target: T1, β2c subunit of human cCP (Homo sapiens, UniProt P49720+Q99436); assay: IC50 determination with fluorogenic substrate Ac-RLR-AMC (PA28β added); assay type: biochemical
T1 construct: purchased Boston Biochem, Inc
Description: Stock solutions of the compounds were prepared in DMSO. To the 35 μL of solution of the compound in the buffer, 35 μL of 0.4 nM human iCP (South Bay Bio, San Jose, CA, USA) or human cCP (Boston Biochem, Inc., Cambridge, MA, USA) was added. For assays evaluating the activity of β2c and β2i, the buffer was modified by adding the proteasomal activator PA28β (Boston Biochem, Inc., Cambridge, MA, USA) at a final concentration of 6 nM. […] The substrates used were acetyl-Nle-Pro-Nle-Asp-7-amino-4-methylcoumarin (Ac-nLPnLD-AMC, Bachem, Bubendorf, Switzerland) for β1c, acetyl-Pro-Ala-Leu-7-amino-4-methylcoumarin (Ac-PAL-AMC, Boston Biochem, Inc., Cambridge, MA, USA) for β1i, acetyl-Arg-Leu-Arg-7-amino-4-methylcoumarin (Ac-RLR-AMC, Bachem, Bubendorf, Switzerland) for β2c and β2i, acetyl-Trp-Leu-Ala-7-amino-4-methylcoumarin (Ac-WLA-AMC, Bachem, Bubendorf, Switzerland) for β5c, and acetyl-Ala-Asn-Trp-7-amino-4-methylcoumarin (Ac-ANW-AMC, Bachem, Bubendorf, Switzerland) for β5i. Progress of the reaction was measured using a BioTek Synergy HT microplate reader, monitoring fluorescence at 460 nm (excitation at 360 nm) for 60 min at 37 °C. The initial linear ranges were used to calculate the reaction velocity and determine the residual activity.
as §2

[3] = molecular target: β2i subunit of human iCP (Homo sapiens, UniProt P40306+P49720); assay: as above
Description: as §1, §2

[4] = molecular target: β1i subunit of human iCP (Homo sapiens, UniProt P28065+P40306); assay: IC50 determination with subunit-specific fluorogenic substrate Ac-PAL-AMC; conditions: for IC50: IC50 β1i
Description: as §1, §2

[5] = molecular target: T2, β5c subunit of human cCP (Homo sapiens, UniProt P20618+P28074); assay: IC50 determination with fluorogenic substrate Ac-WLA-AMC; assay type: biochemical
T2 construct: purchased Boston Biochem, Inc
Description: as §1, §2

[6] = molecular target: T3, β1c subunit of human cCP (Homo sapiens, UniProt P28072+Q99436); assay: IC50 determination with subunit-specific fluorogenic substrate Ac-nLPnLD-AMC; assay type: biochemical
T3 construct: purchased Boston Biochem, Inc
Description: as §1, §2

[7] = test system: β5c; conditions: in parentheses in Table S2; SI reference list; read-out: IC50 β5c, previously published data; cited from earlier work
[8] = test system: β5i; conditions: in parentheses in Table S2; SI reference list; read-out: IC50 β5i, previously published data; cited from earlier work
[9] = test system: β1i; conditions: in parentheses in Table S2; SI reference list; read-out: IC50 β1i, previously published data; cited from earlier work
[10] = test system: β1c; conditions: in parentheses in Table S2, SI reference list, cited from earlier work
[11] = test system: β2c; conditions: in parentheses in Table S2; SI reference list; read-out: IC50 β2c, previously published data; cited from earlier work
[12] = test system: β2i; conditions: in parentheses in Table S2; SI reference list; read-out: IC50 β2i, previously published data; cited from earlier work
[13] = test system: LPS-stimulated PBMCs; assay: Cytokine secretion, Cytometric Bead Array; assay type: cell-based, human; conditions: 250 nM; 1 h pretreatment, LPS 1 μg/mL, 24 h; IL-1, IL-6, IL-8, IL-10, TNF-α
Description: PBMCs (1.5 × 10^6/mL) were plated in culture media in 96-well round-bottom plates. After a 60 min treatment with compounds at 37 °C and 5% CO2, cells were stimulated with LPS (Escherichia coli, O111:B4, 1 μg/mL, Sigma) for 24 h. Supernatants were then collected and analyzed for cytokine release by Human Inflammatory Cytokine Cytometric Bead Array (BD Biosciences, New Jersey, USA).

[14] = test system: all subunits of the human cCP and iCP; assay: Subunit inhibition profile and preference across cCP and iCP subunits; assay type: biochemical; conditions: for fold lower potency on the cCP counterparts of β1i and β5i: β1c, β5c vs β1i
Description: as §2

[15] = Solubility remark (exclusion from cell-based assays); assay type: physicochemical; conditions: reason for not using in cell-based assays
[16] = human iCP, mean of at least three experiments, NA: not active at 50 μM
[17] = human cCP, mean of at least three experiments, NA: not active at 50 μM
[18] = read-out: IC50 β1c, previously published data

IC50 [1, 16] | IC50 [2, 17] | IC50 [3] | IC50 [4, 16] | IC50 [5, 17] | IC50 [6, 17] | SMILES | further results
17 nM | 4900 nM | 3400 nM | 54 nM | 54 nM | 235 nM | O=C(N[C@@H](Cc1ccccc1)C(=O)N[C@@H](Cc1ccccc1)B(O)O)c1cnccn1 [5i, ((R)-2-Phenyl-1-((S)-3-phenyl-2-(pyrazine-2-carboxamido)propanamido)ethyl)boronic Acid] | 
220 nM |  |  | 746 nM | 12800 nM |  | O=C(N[C@@H](Cc1ccccc1)C(=O)N[C@H](B(O)O)c1ccccc1)c1cnccn1 [5a, ((R)-Phenyl((S)-3-Phenyl-2-(pyrazine-2-carboxamido)propanamido)methyl)boronic Acid] | 
 |  |  |  |  |  | COc1ccc(C[C@H](NC(=O)[C@H](C)NC(=O)CN2CCOCC2)C(=O)N[C@@H](CC2CCCC3CCCCC32)C(=O)[C@@]2(C)CO2)cc1 (stereo partly shown) [Lu-002i] | IC50 [7]: > 100000 nM; IC50 [8]: > 100000 nM; IC50 [9]: > 100000 nM; IC50 [10, 18]: > 100000 nM
 |  | > 1000 nM |  |  |  | C[C@]1(C(=O)[C@H](Cc2ccccc2)NC(=O)[C@H](CO)NC(=O)c2cccc(=O)[nH]2)CO1 [KZR-504] | IC50 [7]: 6900 nM; IC50 [11]: > 250000 nM; IC50 [12]: > 250000 nM; IC50 [8]: 4300 nM; IC50 ([2]; own assay): > 1000 nM; IC50 [9]: 51 nM; IC50 ([4]; own assay): 59 ± 11 nM
 |  | 338 ± 122 nM |  |  |  | COc1ccc([C@@H](O)[C@H](NC(=O)[C@H](C)NC(=O)CN2CCOCC2)C(=O)N[C@@H](CC2=CCCC2)C(=O)[C@@]2(C)CO2)cc1 [KZR-616, (2S,3R)-N-((S)-3-(Cyclopent-1-En-1-Yl)-1-((R)-2-Methyloxiran-2-yl)-1-Oxopropan-2-yl)-3-Hydroxy-3-(4-Methoxyphenyl)-2-((S)-2-(2-Morpholinoacetamido)Propanamido)Propenamide, reference compound] | IC50 [7]: 688 nM; IC50 ([1]; own assay): 26 ± 21 nM; IC50 [11]: 604 nM; IC50 [12]: 623 nM; IC50 [8]: 39 nM; IC50 ([2]; own assay): 403 ± 151 nM; IC50 [9]: 131 nM; IC50 ([4]; own assay): 96 ± 32 nM; Effect on secretion of cytokines in LPS-stimulated PBMCs [13]: reduced the secretion of IL-1, IL-6, IL-8, IL-10, and TNF-α to a significant degree; IC50 [10, 18]: > 10600 nM; IC50 ([5]; own assay): 426 ± 48 nM; IC50 ([6]; own assay): > 1000 nM
 |  |  |  |  |  | CC(C)(C)ONC(=O)C[C@H](NC(=O)CCc1ccccc1)C(=O)N[C@@H](Cc1ccc(F)cc1)C(=O)NCc1cccc2ccccc12 [DPLG3] | IC50 [11]: > 33300 nM; IC50 [12]: > 33300 nM; IC50 [8]: 4.5 nM; IC50 [9]: > 33300 nM; IC50 ([4]; own assay): > 1000 nM; IC50 [10, 18]: > 33300 nM
15 nM | 79000 nM | 10400 nM | 40 nM | 402 nM | 1340 nM | COc1ccc([C@H](NC(=O)[C@H](Cc2ccccc2)NC(=O)c2cnccn2)B(O)O)cc1 [5e, ((R)-(4-Methoxyphenyl)((S)-3-phenyl-2-(pyrazine-2-carboxamido)propanamido)methyl)boronic Acid] | fold lower potency on the cCP counterparts of β1i and β5i [14]: 10–20 fold
32 nM |  |  | 38 nM | 225 nM | 526 nM | O=C(N[C@@H](Cc1ccccc1)C(=O)N[C@H](B(O)O)c1ccc(F)cc1)c1cnccn1 [5c, ((R)-(4-Fluorophenyl)((S)-3-phenyl-2-(pyrazine-2-carboxamido)propanamido)methyl)boronic Acid] | fold lower potency on the cCP counterparts of β1i and β5i [14]: 10–20 fold; Effect on secretion of cytokines in LPS-stimulated PBMCs [13]: significantly diminished ability to affect cytokine release
 |  | > 1000 nM |  |  |  | CC(C)C[C@H](NC(=O)C(C)(C)NC(=O)c1ccccc1C(F)(F)F)B(O)O [ML604440, reference compound] | IC50 [7]: > 1000 nM; IC50 ([1]; own assay): > 1000 nM; IC50 [8]: > 1000 nM; IC50 ([2]; own assay): > 1000 nM; IC50 [9]: ~12.5 nM and 12.5 nM; IC50 ([4]; own assay): 8 ± 5 nM; IC50 ([5]; own assay): > 1000 nM; IC50 ([6]; own assay): > 1000 nM
 |  |  |  |  |  | CC(C)C[C@H](NC(=O)[C@H](CCc1ccccc1)NC(=O)CN1CCOCC1)C(=O)N[C@@H](Cc1ccccc1)C(=O)N[C@@H](CC(C)C)C(=O)[C@@]1(C)CO1 [carfilzomib] | IC50 ([10]; read-out: IC50 β1c, literature data): 13 nM
3 nM | 1850 nM | 74500 nM | 17 nM | 114 nM | 897 nM | O=C(N[C@@H](Cc1ccccc1)C(=O)N[C@H](B(O)O)c1ccc(Cl)cc1)c1cnccn1 [5d, ((R)-(4-Chlorophenyl)((S)-3-phenyl-2-(pyrazine-2-carboxamido)propanamido)methyl)boronic Acid] | solubility [15]: limited solubility; IC50 for β5i, fold lower than for β5c ([1]; β5i vs β5c): 30 fold; IC50 for β1i, fold lower than for β1c ([4]; β1i vs β1c): 50 fold
9 nM | 440 nM | 499 nM | 172 nM | 5 nM | 827 nM | O=C(N[C@@H](Cc1ccccc1)C(=O)N[C@H](B(O)O)C1CC1)c1cnccn1 [5k, ((R)-Cyclopropyl((S)-3-phenyl-2-(pyrazine-2-carboxamido)propanamido)methyl)boronic Acid] | fold lower potency on β1c and β1i ([14]; compared with bortezomib): approximately 80 fold
32 nM |  | 9800 nM | 42 nM | 712 nM | 545 nM | Cc1ccc([C@H](NC(=O)[C@H](Cc2ccccc2)NC(=O)c2cnccn2)B(O)O)cc1 [5b, ((R)-((S)-3-Phenyl-2-(pyrazine-2-carboxamido)propanamido)(p-tolyl)methyl)boronic Acid] | fold lower potency on the cCP counterparts of β1i and β5i [14]: 10–20 fold; Effect on secretion of cytokines in LPS-stimulated PBMCs [13]: significantly diminished ability to affect cytokine release
24 nM |  | 260 nM | 270 nM | 12 nM | 1310 nM | O=C(N[C@@H](Cc1ccccc1)C(=O)N[C@H](B(O)O)c1ccc(-c2ccccc2)cc1)c1cnccn1 [5h, ((R)-[1,1′-Biphenyl]-4-yl((S)-3-phenyl-2-(pyrazine-2-carboxamido)propanamido)methyl)boronic Acid] | solubility [15]: limited solubility; IC50 β2c [2, 17]: no detectable inhibition; IC50 for both β5 subunits, fold better than IC50 for β1i [14]: 10–20 fold; IC50 ([6]; own assay): > 1000 nM
19 nM | 3400 nM | 1280 nM | 2 nM | 11 nM | 21 nM | CC[C@H](NC(=O)[C@H](Cc1ccccc1)NC(=O)c1cnccn1)B(O)O [5j, ((R)-1-((S)-3-phenyl-2-(pyrazine-2-carboxamido)propanamido)propyl)boronic Acid] | 
18 nM | 45000 nM | 8600 nM | 201 nM | 183 nM | 315 nM | O=C(N[C@@H](Cc1ccccc1)C(=O)N[C@H](B(O)O)c1ccc2c(c1)OCO2)c1cnccn1 [5g, ((R)-Benzo[d][1,3]dioxol-5-yl((S)-3-phenyl-2-(pyrazine-2-carboxamido)propanamido)methyl)boronic Acid] | IC50 for β5i, fold lower than for β1i, β1c, and β5c [1]: 10 fold
 |  |  |  |  |  | COc1ccc(C[C@H](NC(=O)[C@H](C)NC(=O)CN2CCOCC2)C(=O)N[C@@H](Cc2ccccc2)C(=O)[C@@]2(C)CO2)cc1 [ONX-0914] | IC50 [7]: 54 nM; IC50 [11]: 1100 nM; Effect on secretion of cytokines in LPS-stimulated PBMCs [13]: Very similar result; IC50 [10, 18]: > 10000 nM
1300 nM |  |  | 22400 nM | 3300 nM |  | CCOC(=O)c1cccc([C@H](NC(=O)[C@H](Cc2ccccc2)NC(=O)c2cnccn2)B(O)O)c1 [5f, ((R)-(3-(Ethoxycarbonyl)phenyl)((S)-3-phenyl-2-(pyrazine-2-carboxamido)propanamido)methyl)boronic Acid] | 
